In one test the target is T1, PPARγ receptor (Homo sapiens, UniProt P37231).
T1 sequence (P37231 1-505): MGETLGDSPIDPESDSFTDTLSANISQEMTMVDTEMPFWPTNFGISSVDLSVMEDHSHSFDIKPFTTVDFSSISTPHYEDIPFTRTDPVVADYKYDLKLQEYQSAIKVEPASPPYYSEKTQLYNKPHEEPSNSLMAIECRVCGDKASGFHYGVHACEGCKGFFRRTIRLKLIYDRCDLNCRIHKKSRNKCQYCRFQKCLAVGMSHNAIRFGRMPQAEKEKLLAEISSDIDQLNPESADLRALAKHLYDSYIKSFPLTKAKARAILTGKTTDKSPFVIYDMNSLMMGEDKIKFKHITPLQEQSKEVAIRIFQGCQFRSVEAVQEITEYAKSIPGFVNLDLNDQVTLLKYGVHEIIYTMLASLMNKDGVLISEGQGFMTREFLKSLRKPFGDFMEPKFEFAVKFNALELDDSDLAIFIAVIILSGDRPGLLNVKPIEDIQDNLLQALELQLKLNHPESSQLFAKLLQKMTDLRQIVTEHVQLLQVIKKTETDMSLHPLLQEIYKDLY
Description: assay for PPARγ agonist activity. The conditions noted are these: false-positive counter assay. It is filed as cell-based.

A further test relates to HNF4α mRNA. Description: HNF4α mRNA qPCR in T6PNE cells. It is filed as cell-based, human. Here is the method: Quantitative PCR (Q-PCR) from in vitro cell culture experiments used total RNA purified using RNeasy Kits (Qiagen). For liver tissue samples, total RNA was isolated using Trizol (Invitrogen) and prepared for RNAseq (mouse liver DMSO and NCT, N=3). cDNA was amplified using 3 μg of total RNA using qScript cDNA SuperMix (Quanta BioSciences, Beverly, Mass., USA). QPCR analysis was performed using SYBR® Select Master Mix (Applied Biosystems) and ABI 7900HT (Applied Biosystems, Thermo Fisher Scientific). The Ct values of mRNA expression were then normalized to the 18 s rRNA values and are expressed as fold change over samples from mice fed normal chow for in vivo experiments or DMSO controls for cell culture experiments.

The test system of the next test is estrogenic activity. Description: assay for estrogenic activity. Format: cell-based. The settings on record: false-positive counter assay.
Test [1] concerns the target T2, HNF4α (Homo sapiens, UniProt P41235).
T2 sequence (P41235 1-474): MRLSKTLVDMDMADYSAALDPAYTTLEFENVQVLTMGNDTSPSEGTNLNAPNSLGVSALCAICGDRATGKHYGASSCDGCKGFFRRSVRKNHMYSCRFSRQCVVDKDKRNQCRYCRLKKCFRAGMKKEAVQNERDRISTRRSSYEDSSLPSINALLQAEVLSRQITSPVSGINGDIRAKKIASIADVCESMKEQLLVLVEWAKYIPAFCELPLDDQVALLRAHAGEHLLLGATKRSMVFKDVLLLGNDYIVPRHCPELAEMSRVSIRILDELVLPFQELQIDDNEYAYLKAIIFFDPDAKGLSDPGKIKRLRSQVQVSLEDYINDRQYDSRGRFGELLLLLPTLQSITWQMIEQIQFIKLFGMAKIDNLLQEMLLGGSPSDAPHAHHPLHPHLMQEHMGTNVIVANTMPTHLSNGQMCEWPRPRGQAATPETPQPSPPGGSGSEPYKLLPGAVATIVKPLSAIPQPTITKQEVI
Description: DARTS assay (HNF4α protease sensitivity) in HepG2 cells. The settings on record: 40 or 80 μM for 16 h, subtilisin. It is filed as binding. Details: Total cell protein was extracted; endogenous in cells; host or cells: HepG2 cells. As for the experimental part:
DARTS assays were conducted as described in the art. HepG2 cells were treated with DMSO, BI6015, NCT, NFT at a concentration of 40 or 80 μM for 16 hr. Total cell protein was extracted and measured by BCA protein assay (Thermo Scientific). Each sample was split into two aliquots for proteolysis without (−) or with (+) Subtilisin (Sigma-Aldrich). Forty […] of cell lysate was incubated with or without protease (40 ng/ml subtilisin) for 35 min at room temperature.
Whole-cell extracts were prepared by incubation in RIPA buffer (Invitrogen) containing protease inhibitors (Calbiochem, San Diego, Calif.). Protein ([…]) was separated on 12% or 16% Tri-Glycine gels (Invitrogen) and transferred to Immobilon P membrane (0.2 μm pore, Millipore). After 1 h in phosphate-buffered saline-Tween (PBST) with 3% milk, membrane was incubated with antibodies to HNF4α (mouse, Novus, 1:1000), LC3B (rabbit, Novus, 1:500), p62 (SQSTM1, mouse, Santa Cruz, 1:1000) or β-actin (mouse, Santa Cruz, 1:2000), followed by secondary antibody conjugated to horseradish peroxidase (1:5000, Jackson Immune).

The target in test [2] is T2, HNF4α. Put plainly: T6PNE insulin promoter assay (human insulin promoter-GFP transgene). The settings on record: T6PNE cells; for insulin promoter activity / HNF4α activation: GFP-positive cells relative to DMSO; for dose responsiveness in the INS promoter assay: multiple doses. Also on record: endogenous in cells; host or cells: T6PNE cells. It is filed as cell-based. Here is the method:
The T6PNE insulin promoter assay has been described previously and was performed here with slight modifications as follows: T6PNE cells were seeded at 200 cells per well in 384-well tissue culture plates (Greiner Bio-One) in the presence of 0.5 μM tamoxifen. Compounds described herein in DMSO were dispensed with an Echo 555 Acoustic Liquid Handler (Beckman Coulter). Three days after compound addition, cells were fixed in 4% paraformaldehyde (USBio) for 15 min and stained with DAPI (0.167 μg/ml, Invitrogen). Blue (DAPI) and green (GFP) channels were imaged using a Celigo imaging cytometer (Nexcelom Bioscience). The number of GFPpositive cells was normalized to the DAPI-positive cell number and fold change calculated relative to the DMSO control.
T6PNE cells were maintained in RPMI (5.5mM glucose, Corning) supplemented with 10% fetal bovine serum (FBS, Sigma-Aldrich) and 1% penicillin-streptomycin (pen-strep, Gibco). Cells were maintained in 5% CO2 at 37° C. For the insulin promoter assay, 0.5 μM tamoxifen (Sigma-Aldrich) was added to T6PNE cell culture media. HepG2 or HeLa cells were cultured in DMEM (high glucose, Corning) supplemented with 10% FBS and 1% pen-strep and maintained at 5% CO2, 37° C.

Entries after “also recorded” stand apart in the source; their conditions may differ. Like-named read-outs stand apart in the source and are kept apart here.

Regarding `COc1cc(/C=C/C(=O)NCCc2ccc(O)cc2)ccc1O` [NFT, N-trans feruloyltyramine], the “PPARγ receptor agonist activity” value at PPARγ receptor is listed as “no estrogenic or PPARγ receptor agonist activity”. Moreover, in the test on HNF4α mRNA, the “HNF4α mRNA” value is recorded as “increased; also recorded: induced HNF4α expression”. Also, the estrogenic activity entry in the test with estrogenic activity is given as “no estrogenic”. In addition, the “HNF4α proteolytic sensitivity / conformational change” value on HNF4α [1] is reported as “induced a change in HNF4α proteolytic sensitivity”. At HNF4α [2], the “insulin promoter activity / HNF4α activation” value was “more potent activators; also recorded: approximately as active as alverine; also recorded: much more potent” and the “dose responsiveness in the INS promoter assay” value is reported as “exhibited dose responsiveness”.

Turning to `O=C(/C=C/c1ccc(O)c(O)c1)NCCc1ccc(O)cc1` [NCT, N-trans-caffeoyltyramine], the “PPARγ receptor agonist activity” value at PPARγ receptor was “no estrogenic or PPARγ receptor agonist activity”. Besides, the results for the “HNF4α mRNA” value in the test on HNF4α mRNA and in the test with HNF4α mRNA (listed as N-trans-caffeoyltyramine) were “increased; also recorded: induced HNF4α expression” and “induces the expression of HNF4a mRNA”, respectively. In addition, the estrogenic activity entry with estrogenic activity is given as “no estrogenic”. The “HNF4α proteolytic sensitivity / conformational change” value on HNF4α [1] is listed as “induced a change in HNF4α proteolytic sensitivity”. The “insulin promoter activity / HNF4α activation” value at HNF4α [2] is listed as “more potent activators; also recorded: strongest inducer of insulin promoter activity; also recorded: much more potent”. Further, on HNF4α [2], the “dose responsiveness in the INS promoter assay” value was “exhibited dose responsiveness”.
